Measurements from ChEMBL document CHEMBL6078668, “Synthesis and biological evaluation of lappaconitine analogues as potential anti-neuroinflammatory agents by side chain modification and scaffold hopping strategy” (Bioorg Med Chem, 2025).

Columns and labels:
[1] = Cytotoxicity against C57BL/6 mouse BV-2 cells assessed as survival rate at 20 uM incubated for 24 hrs by MTT assay relative to control; type: toxicity, cell-based; conditions: read-out: INH
BV-2 = experiment: Anti-neuroinflammatory activity against LPS-stimulated C57BL/6 mouse BV-2 cells assessed as inhibition of NO release at 20 uM preincubated with compound for 4 hrs followed by LPS addition and measured after 24 hrs by Griess reagent based assay relative to control; type: functional; conditions: C57BL/6, BV-2, time 28 hrs

Structure (SMILES)	viability at 24 h, 20 µM [1] [%]	inhibition at 20 µM (BV-2) [%]
CCN1C[C@]2(COC)CC[C@H](OC)[C@]34C1[C@@H](C[C@H]23)[C@@]1(O)C[C@H](OC)[C@H]2C[C@@H]4[C@]1(O)[C@H]2OC(=O)c1ccccc1NS(=O)(=O)c1ccc(Br)s1	110	32.8
CCc1ccc(C(=O)Nc2ccccc2C(=O)OC[C@@]23CC[C@H](OC)[C@]45C([C@@H](C[C@H]24)[C@@]2(O)C[C@H](OC)[C@H]4C[C@@H]5[C@]2(O)[C@H]4OC)N(CC)C3)cc1	102	21.7
